Results reported in ChEMBL document CHEMBL1201862, “PubChem BioAssay data set” (2004).
The source made the active and inactive calls.

How the values were obtained:
[1] = HEp-2 cell cytotoxicity, dose response, cytotoxicity control for RSV inhibitor project, HTS (AID 2410); type: functional; details: human respiratory syncytial virus
Cytochrome P450 2C19 = Cytochrome P450 2C19 (Homo sapiens, UniProt P33261); assay: Cytochrome panel assay with activity outcomes. Panel member name: p450-cyp2c19 Compounds with AC50 equal or less than 10 uM are considered active; type: functional
Sequence of Cytochrome P450 2C19 (P33261 whole entry): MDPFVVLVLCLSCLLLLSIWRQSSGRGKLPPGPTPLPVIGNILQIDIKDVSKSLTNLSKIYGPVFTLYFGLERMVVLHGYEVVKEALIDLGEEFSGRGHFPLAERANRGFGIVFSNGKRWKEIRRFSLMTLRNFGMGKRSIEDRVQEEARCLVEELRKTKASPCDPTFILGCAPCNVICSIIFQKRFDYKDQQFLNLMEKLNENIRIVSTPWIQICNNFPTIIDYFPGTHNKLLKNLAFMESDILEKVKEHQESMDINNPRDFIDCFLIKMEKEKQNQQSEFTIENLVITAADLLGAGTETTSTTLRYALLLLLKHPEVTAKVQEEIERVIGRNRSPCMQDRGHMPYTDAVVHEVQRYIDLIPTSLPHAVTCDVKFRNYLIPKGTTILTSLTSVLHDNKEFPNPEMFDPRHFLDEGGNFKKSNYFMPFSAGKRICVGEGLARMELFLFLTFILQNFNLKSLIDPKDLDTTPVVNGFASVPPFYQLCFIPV

Cytochrome P450 2C9 = Cytochrome P450 2C9 (Homo sapiens, UniProt P11712)
Sequence of Cytochrome P450 2C9 (P11712 whole entry): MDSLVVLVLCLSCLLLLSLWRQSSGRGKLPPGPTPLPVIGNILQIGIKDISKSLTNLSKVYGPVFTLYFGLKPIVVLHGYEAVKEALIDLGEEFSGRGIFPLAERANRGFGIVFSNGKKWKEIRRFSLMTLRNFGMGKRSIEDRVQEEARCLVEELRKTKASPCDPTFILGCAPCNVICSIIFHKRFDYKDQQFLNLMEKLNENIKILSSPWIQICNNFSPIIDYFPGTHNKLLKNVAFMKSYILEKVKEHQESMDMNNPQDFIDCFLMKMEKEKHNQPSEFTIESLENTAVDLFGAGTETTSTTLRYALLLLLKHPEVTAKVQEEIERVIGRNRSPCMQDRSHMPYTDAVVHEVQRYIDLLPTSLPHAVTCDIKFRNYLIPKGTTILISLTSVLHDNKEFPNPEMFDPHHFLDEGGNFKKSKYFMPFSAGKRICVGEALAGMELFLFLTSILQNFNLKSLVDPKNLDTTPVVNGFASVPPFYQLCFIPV

[2] = tested on: Streptococcus sp. 'group A'; assay: growth inhibition of control SK(-) GAS strain, dose response, counter-screen for streptokinase expression inhibitor project, luminescence, kanamycin, BacTiterGlo, confirmation (AID 1900); type: functional, organism-based
Streptococcus = assay: Group A Streptococcus viability loss, dose response, counter-screen for streptokinase expression inhibitor project, luminescence, BacTiterGlo (AID 1915); type: functional, organism-based;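 note: potency for reduction of bacterial viability or growth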
Cytochrome P450 3A4 = Cytochrome P450 3A4 (Homo sapiens, UniProt P08684);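 note: CYP3A4 tested as one member of a cytochrome P450 panel screen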
Sequence of Cytochrome P450 3A4 (P08684 whole entry): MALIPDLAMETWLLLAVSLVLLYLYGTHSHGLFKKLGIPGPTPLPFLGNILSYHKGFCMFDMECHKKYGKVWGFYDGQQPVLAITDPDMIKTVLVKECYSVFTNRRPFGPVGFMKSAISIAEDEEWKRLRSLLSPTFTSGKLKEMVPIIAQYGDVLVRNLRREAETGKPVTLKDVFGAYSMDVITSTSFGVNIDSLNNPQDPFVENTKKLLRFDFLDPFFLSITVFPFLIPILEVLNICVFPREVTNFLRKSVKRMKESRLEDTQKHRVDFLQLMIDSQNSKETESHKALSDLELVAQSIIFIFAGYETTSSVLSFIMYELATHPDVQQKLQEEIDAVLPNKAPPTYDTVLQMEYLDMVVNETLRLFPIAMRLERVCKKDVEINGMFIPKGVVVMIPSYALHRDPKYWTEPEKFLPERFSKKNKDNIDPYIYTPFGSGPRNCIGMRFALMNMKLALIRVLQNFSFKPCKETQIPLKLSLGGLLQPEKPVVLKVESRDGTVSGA

[3] = biological target: T1, Rac GTPase-activating protein 1 (Homo sapiens, UniProt Q9H0H5); assay: MgcRacGAP GTPase-activating activity inhibitors, confirmation, biochemical, ADP Hunter fluorescence, primary and confirmatory (AID 624330); type: functional
T1 sequence (Q9H0H5 whole entry): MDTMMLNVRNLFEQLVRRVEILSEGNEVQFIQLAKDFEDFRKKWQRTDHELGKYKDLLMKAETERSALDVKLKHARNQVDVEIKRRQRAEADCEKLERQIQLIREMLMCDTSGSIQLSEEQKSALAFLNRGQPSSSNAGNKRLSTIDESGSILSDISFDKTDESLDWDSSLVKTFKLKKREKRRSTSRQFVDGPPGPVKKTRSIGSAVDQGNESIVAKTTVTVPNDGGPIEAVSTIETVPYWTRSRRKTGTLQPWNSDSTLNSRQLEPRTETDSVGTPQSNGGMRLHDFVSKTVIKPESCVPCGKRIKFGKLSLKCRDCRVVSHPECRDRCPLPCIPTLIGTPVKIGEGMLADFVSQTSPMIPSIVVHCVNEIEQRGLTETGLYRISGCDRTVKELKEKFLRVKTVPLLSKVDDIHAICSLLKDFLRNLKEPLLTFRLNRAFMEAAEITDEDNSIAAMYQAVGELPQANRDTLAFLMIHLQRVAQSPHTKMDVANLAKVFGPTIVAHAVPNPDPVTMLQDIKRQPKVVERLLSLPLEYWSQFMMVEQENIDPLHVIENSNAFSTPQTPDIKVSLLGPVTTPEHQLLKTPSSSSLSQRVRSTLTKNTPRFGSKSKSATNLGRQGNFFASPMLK

Protein RecA = biological target: T2, Protein RecA (Mycobacterium tuberculosis, UniProt P9WHJ3); assay: Fluorescence Cell-Free Homogeneous Dose Retest to Identify Inhibitors of RecA-Intein Splicing Activity. [Related pubchem assays (depositor defined):AID2097, AID2223, AID489010, AID492950]; type: functional
T2 sequence (P9WHJ3 whole entry): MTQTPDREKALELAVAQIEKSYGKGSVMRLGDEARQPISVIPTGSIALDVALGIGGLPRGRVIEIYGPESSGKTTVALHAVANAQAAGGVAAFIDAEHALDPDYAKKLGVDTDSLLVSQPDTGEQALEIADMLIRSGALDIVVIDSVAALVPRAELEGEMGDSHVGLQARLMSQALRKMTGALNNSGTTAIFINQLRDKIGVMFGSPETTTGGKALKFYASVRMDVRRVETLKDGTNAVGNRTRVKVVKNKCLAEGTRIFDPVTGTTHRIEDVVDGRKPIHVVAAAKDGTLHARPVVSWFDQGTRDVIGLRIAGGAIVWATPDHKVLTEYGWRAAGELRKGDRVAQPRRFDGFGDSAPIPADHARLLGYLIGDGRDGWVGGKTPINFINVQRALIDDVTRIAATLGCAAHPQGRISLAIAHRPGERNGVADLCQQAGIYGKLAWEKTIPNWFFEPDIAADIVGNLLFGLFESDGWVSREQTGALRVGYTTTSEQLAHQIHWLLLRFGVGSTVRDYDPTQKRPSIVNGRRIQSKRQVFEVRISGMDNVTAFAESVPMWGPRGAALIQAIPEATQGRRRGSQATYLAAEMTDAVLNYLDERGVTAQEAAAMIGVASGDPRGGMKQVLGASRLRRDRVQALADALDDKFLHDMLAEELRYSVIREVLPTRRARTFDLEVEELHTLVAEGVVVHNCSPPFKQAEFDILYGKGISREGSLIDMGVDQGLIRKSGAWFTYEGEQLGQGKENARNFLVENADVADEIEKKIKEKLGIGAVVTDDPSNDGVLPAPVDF

## O=C(COC(=O)c1c2ccccc2cc2ccccc12)NCC(F)(F)F
[1]
  CC50: 23.6 µM (active)

## CCN(C(=O)CSc1nnc(Cn2nnc3ccccc32)o1)c1nc(-c2ccccc2)cs1
[1]
  CC50: 26.4 µM (active)

## O=C(CN1CCN(c2nc(-c3ccccc3)cs2)CC1)NCc1ccc2c(c1)OCO2
[1]
  CC50: 11 µM (active)

## O=C(O)[C@H](Cc1cc(I)c(O)c(I)c1)C1CCCCC1
Cytochrome P450 2C19; read-out: AC50
  AC50: 2 µM (inconclusive)
Cytochrome P450 2C9
  AC50: 3.16 µM (inconclusive)

## CCC(C#CCN1CCCCC1)(CC)OCCC#N
Cytochrome P450 2C9
  AC50: 0.355 µM (inconclusive)

## COc1ccc2c(c1OC)C(=O)OC2Nc1ncccc1C (stereo not given)
Cytochrome P450 2C19; read-out: AC50
  AC50: 39.8 µM (inconclusive)

## CCOC(=O)c1cnc2cc(-c3ccc(C(C)(C)C)cc3)nn2c1N
Cytochrome P450 2C9
  AC50: 3.16 µM (inconclusive)

## COc1ccc(CSCCN=C(S)Nc2ccccc2)cc1Cl
[2]
  EC50: 18.5 µM (active)
Streptococcus
  EC50: > 150 µM (not active)

## COc1ccc(C(=O)CC(=O)C(=O)Nc2ccccc2C(F)(F)F)cc1
[2]
  EC50: 3.52 µM (active)
Streptococcus
  EC50: 8.59 µM (active)

## CS(=O)(=O)N1CCN(c2ccc([N+](=O)[O-])c(NCc3ccccc3)c2)CC1
Cytochrome P450 3A4
  AC50: 31.6 µM (inconclusive)
Cytochrome P450 2C19; read-out: AC50
  AC50: 31.6 µM (inconclusive)

## Cc1ccc2nc(NC(=O)COC(=O)CSc3nc(C)cc(C)n3)sc2c1
Cytochrome P450 2C19; read-out: AC50
  AC50: 5.01 µM (inconclusive)

## Cc1ccc(-n2cnc3cc(NCc4cccs4)ccc32)cc1
[1]
  CC50: 25.3 µM (active)

## COc1ccc(NC(=O)CSc2nc(-c3ccc(C)cc3)cc(C(F)(F)F)c2C#N)cc1
Cytochrome P450 2C19; read-out: AC50
  AC50: 20 µM (inconclusive)

## COc1cc(/C=C/CN2CCC(CO)(CC3CCCCO3)CC2)ccc1O (stereo not given)
[3]
  IC50: 91.2 µM (active)

## C=CCOC(=O)C1=C(C)NC(=O)NC1c1ccc(OC(=O)c2ccco2)c(OC)c1 (stereo not given)
Protein RecA
  EC50: 18 µM (active)

## CCCC(=O)Nc1nc(C(=O)OCC)cs1
Cytochrome P450 2C19; read-out: AC50
  AC50: 39.8 µM (inconclusive)

## O=C(CN1CCN(C(c2ccccc2)c2ccccc2)CC1)N1CCN(c2ccccc2)CC1
[1]
  CC50: 23.9 µM (active)

## COc1ccc(NC2CCCN(C(=O)c3oc(C)cc3C)C2)cc1OC (stereo not given)
[3]
  IC50: 159 µM (active)

## Cc1cc(C)c2c(CN3CCN(Cc4ccc5c(c4)OCO5)CC3)cc(=O)oc2c1
[1]
  CC50: 16.8 µM (active)

## COc1ncc2nc(CCc3ccccc3)c(=O)n(C3CC3)c2n1
Cytochrome P450 3A4
  AC50: 31.6 µM (inconclusive)

## CCCc1nc2c(c(=O)c3ccccc3n2C)c(=O)n1-c1cc(C)cc(C)c1
[1]
  CC50: > 50 µM (active)

## COC(=O)C(O)(c1c(C)[nH]c2ccccc12)C(F)(F)F (stereo not given)
Cytochrome P450 3A4
  AC50: 22.4 µM (inconclusive)
Cytochrome P450 2C9
  AC50: 3.16 µM (inconclusive)

## COc1ccc(N(C(=O)Cn2nnc3ccccc32)C2(C(=O)NC3CCCC3)CCCCC2)cc1
Cytochrome P450 2C19; read-out: AC50
  AC50: 14.1 µM (inconclusive)
Cytochrome P450 2C9
  AC50: 22.4 µM (inconclusive)

## COCCNc1nc(-c2ccc(C(=O)N(C)C)cc2)nc2ccccc12
Cytochrome P450 3A4
  AC50: 15.8 µM (inconclusive)

## Cc1nnc(SCC2=C(C(=O)O)N3C(=O)C(NC(=O)C(C)n4nc(C(F)(F)F)cc4C)C3SC2)s1 (stereo not given)
[2]
  EC50: 0.201 µM (active)
Streptococcus
  EC50: 0.421 µM (active)

## Cc1nc2cnc(Oc3cccc(Cl)c3)nc2n(CCC#N)c1=O
Cytochrome P450 2C9
  AC50: 39.8 µM (inconclusive)

## Cc1ccc(-c2csc(NCCc3nc4cc(Cl)c(Cl)cc4n3CCCO)n2)cc1
[1]
  CC50: 28.9 µM (active)

## COCC(C)n1c(C)cc(C(=O)COC(=O)c2c(C)nn(-c3ccccc3)c2C)c1C (stereo not given)
[1]
  CC50: 29.2 µM (active)

## Cc1nn2cc(-c3ccc(N)cc3)nc2s1
[3]
  IC50: 110 µM (active)

## COc1ccc(C(=O)CN2C(=O)NC(C)(c3ccccc3)C2=O)cc1OC (stereo not given)
Cytochrome P450 3A4
  AC50: 4.47 µM (inconclusive)
Cytochrome P450 2C19; read-out: AC50
  AC50: 39.8 µM (inconclusive)

## Nc1ncnc2c1ncn2[C@@H]1O[C@@H](C(=O)NC2CC2)[C@H](O)[C@@H]1O
Cytochrome P450 3A4
  AC50: 1 µM (inconclusive)

## C/C(CCN1CCc2nc(-c3ccccc3)c(-c3ccccc3)cc2C1)=N\OC[C@@H](O)[C@@H]1O[C@@H]2OC(C)(C)O[C@@H]2[C@H]1O
Cytochrome P450 3A4
  AC50: 3.98 µM (inconclusive)

## CNc1nc(-c2ccc3c(c2)CCN3C(=O)c2ccccc2C)cs1
[1]
  CC50: 14.9 µM (active)

## Cn1c(O)c(C(c2ccccn2)c2c(O)n(C)c(=S)n(C)c2=O)c(=O)n(C)c1=S
Cytochrome P450 2C9
  AC50: 1.58 µM (inconclusive)

## O=C(COc1ccccc1)Nc1ccc2[nH]c(O)nc2c1
[1]
  CC50: 26 µM (active)

## COc1ccc(NC(S)=NC(=NCS(=O)(=O)c2ccccc2)c2ccccc2)cc1
[1]
  CC50: 24.6 µM (active)

## N=C(N)CCNC(=O)[C@@H]1CCC(N)=N1.O=S(=O)(O)O
Cytochrome P450 2C19
  AC50: inconclusive

## O=C1[C@H]2[C@@H](c3ccc(F)cc3)N3C(=O)N(c4ccc(C(F)(F)F)cc4)C(=O)[C@@]3(Cc3ccccc3)[C@H]2C(=O)N1C1CCCCC1
[1]
  CC50: > 50 µM (active)

## O=C(NCc1ccco1)c1nc(O)c2nnn(Cc3cccc(Cl)c3)c2n1
Cytochrome P450 2C9
  AC50: 15.8 µM (inconclusive)

## COc1ccccc1N1CCN(CC(=O)NCC2CCCO2)CC1 (stereo not given)
[3]
  IC50: 51.9 µM (active)

## Cc1[nH]nc(-c2ccc(OCc3cnn(-c4ccccc4)c3)cc2O)c1Oc1ccccc1F
Cytochrome P450 3A4
  AC50: 8.91 µM (inconclusive)

## Oc1ccc(Br)cc1Cn1nnc2ccccc21
[1]
  CC50: 30 µM (active)

## COc1cc(CN2CCN(Cc3ccc(C(F)(F)F)cc3)CC2)cc(OC)c1OC
[3]
  IC50: 122 µM (active)

## COc1ccc(CCNCc2ccccc2)cc1
[3]
  IC50: 134 µM (active)

## COCCn1c(=O)c(-c2cccs2)nc2cnc(OC)nc21
Cytochrome P450 2C19; read-out: AC50
  AC50: 20 µM (inconclusive)
Cytochrome P450 2C9
  AC50: 39.8 µM (inconclusive)

## COc1cccc([C@@H]2Oc3ccc(OC)cc3/C(=N/O[C@@H](C)CN3CCCc4nc(C)c(C)cc43)[C@@H]2O)c1
Cytochrome P450 2C19; read-out: AC50
  AC50: 0.251 µM (inconclusive)
Cytochrome P450 2C9
  AC50: 2 µM (inconclusive)

## COc1ccc(NC(=O)c2nc[nH]n2)cc1
Cytochrome P450 2C19; read-out: AC50
  AC50: 31.6 µM (inconclusive)
Cytochrome P450 2C9
  AC50: 0.708 µM (inconclusive)

## OC1CNc2c(ccc3ccccc23)C1 (stereo not given)
[3]
  IC50: 18.4 µM (active)

## COc1ccccc1CNC(=O)C[C@@H]1C[C@H]2c3cc(N(C)C)ccc3O[C@H]2[C@H](CO)O1
[3]
  IC50: 153 µM (active)

## COc1cc(/C=N/N=C2/SCC(=O)N2c2ccc(O)cc2)ccc1O
[3]
  IC50: 65 µM (active)

## C/C(CC(=O)NC1CCCC1)=N\NC(=O)Cc1cccs1
Cytochrome P450 3A4
  AC50: 12.6 µM (inconclusive)

## CCN1CCN(c2ccc(/N=C/c3ccc(O)cc3O)cc2)CC1
[3]
  IC50: 28 µM (active)

## O=C(CCC(=O)Nc1ccc(F)cc1)N/N=C/c1ccc(O)cc1
[3]
  IC50: 62.8 µM (active)

## Cc1ccc(S(=O)(=O)Nc2ccc(NC(=O)CN3CCCCC3)c(Cl)c2)cc1
[1]
  CC50: 24.8 µM (active)
